The record followed here is ChEMBL document CHEMBL3804819, “2-(Quinolin-4-yloxy)acetamides Are Active against Drug-Susceptible and Drug-Resistant Mycobacterium tuberculosis Strains” (ACS Med Chem Lett, 2016).

What all share (type): functional
In assay [1] the test system is Mycobacterium tuberculosis. Put plainly: Antibacterial activity against isoniazid-resistant Mycobacterium tuberculosis RS-032 clinical isolate harboring katG S315T mutant assessed as reduction in bacterial growth after 7 days by resazurin assay. Background: The colour change of resazurin is a common sign of viable cells or microbes.
The test system of assay [2] is Mycobacterium tuberculosis. Put plainly: Antibacterial activity against multidrug-resistant Mycobacterium tuberculosis PE-003 clinical isolate harboring inhA C(-15)T mutant assessed as reduction in bacterial growth after 7 days by resazurin assay.
The subject of assay [3] is Mycobacterium tuberculosis. Put plainly: Antibacterial activity against isoniazid-resistant Mycobacterium tuberculosis RS-036 clinical isolate harboring inhA C(-15)T mutant assessed as reduction in bacterial growth after 7 days by resazurin assay.
For assay [4], the system named is Mycobacterium tuberculosis. Put plainly: Selectivity ratio of MIC for isoniazid-resistant Mycobacterium tuberculosis RS-032 clinical isolate harboring katG S315T mutant to MIC for Mycobacterium tuberculosis H37Rv.

In brackets after ≈: the same amount, converted by molar mass. Some results are limits rather than exact numbers.

By MIC is commonly meant the smallest concentration in the dilution series that meets the test's criterion for growth inhibition. Regarding `COc1ccc2nc(C)cc(OCC(=O)Nc3ccccc3)c2c1`, the MIC in assay [1] was determined as 1.93 µM (≈ 0.622 µg/mL); in assay [2] it was 0.24 µM (≈ 0.0774 µg/mL); in assay [3], 0.48 µM (≈ 0.155 µg/mL). For the same compound, the Selectivity ratio in assay [4] turned out to be 2.
For the compound `COc1ccc2nc(C)cc(OCC(=O)Nc3ccccc3OC)c2c1`, the MIC in assay [1] was determined as 0.88 µM (≈ 0.31 µg/mL); in assay [2], 0.06 µM (≈ 0.0211 µg/mL); in assay [3] it was 0.44 µM (≈ 0.155 µg/mL). Also, the Selectivity ratio in assay [4] worked out at 2.
The matching figures for `COc1ccc2nc(C)cc(OCC(=O)Nc3ccc(Cl)cc3)c2c1`: 0.87 µM (≈ 0.31 µg/mL), 0.06 µM (≈ 0.0214 µg/mL), 0.44 µM (≈ 0.157 µg/mL) and 2.
The matching figures for `COc1ccc2nc(C)cc(OCC(=O)Nc3ccc(Br)cc3)c2c1`: 0.78 µM (≈ 0.313 µg/mL), 0.05 µM (≈ 0.0201 µg/mL), 0.39 µM (≈ 0.156 µg/mL) and 2.
The matching figures for `COc1ccc(NC(=O)COc2cc(C)nc3ccc(OC)cc23)c(OC)c1`: 0.81 µM (≈ 0.31 µg/mL), 0.2 µM (≈ 0.0765 µg/mL), 0.41 µM (≈ 0.157 µg/mL) and 2.
As for `COc1ccc2nc(C)cc(OCC(=O)Nc3ccc(C(F)(F)F)cc3)c2c1`, the results for the MIC in assay [1], in assay [2] and in assay [3] were 1.6 µM (≈ 0.625 µg/mL), 0.1 µM (≈ 0.039 µg/mL) and 0.8 µM (≈ 0.312 µg/mL), respectively.
On to `COc1ccc(NC(=O)COc2cc(C)nc3ccc(OC)cc23)cc1`, for which the MIC was 0.88 µM (≈ 0.31 µg/mL) in assay [1], 0.06 µM (≈ 0.0211 µg/mL) in assay [2] and 0.44 µM (≈ 0.155 µg/mL) in assay [3]. Moreover, the Selectivity ratio in assay [4] worked out at 2.
For `COc1ccc2nc(C)cc(OCC(=O)Nc3ccc4c(c3)OCO4)c2c1`, the MIC worked out at 3.41 µM (≈ 1.25 µg/mL) in assay [1], 0.21 µM (≈ 0.0769 µg/mL) in assay [2] and 0.85 µM (≈ 0.311 µg/mL) in assay [3]. For the same compound, the Selectivity ratio in assay [4] amounted to 2.
The matching figures for `COc1ccc2nc(C)cc(OCC(=O)Nc3ccc4ccccc4c3)c2c1`: 0.84 µM (≈ 0.313 µg/mL), 0.05 µM (≈ 0.0186 µg/mL), 0.1 µM (≈ 0.0372 µg/mL) and 2.
As for `COc1ccc2nc(C)cc(OCC(=O)Nc3ccccc3C)c2c1`, the MIC in assay [1] is 0.93 µM (≈ 0.313 µg/mL); in assay [2], 0.11 µM (≈ 0.037 µg/mL); in assay [3], 0.46 µM (≈ 0.155 µg/mL). Moreover, the Selectivity ratio in assay [4] is 2.
For the compound `NNC(=O)c1ccncc1` [ISONIAZID], the MIC in assay [1], in assay [2] and in assay [3] was over 70 µM throughout.
As for `COc1ccc2nc(C)cc(OCC(=O)NCc3ccccc3)c2c1`, the MIC was 3.71 µM (≈ 1.25 µg/mL) in assay [1], 0.46 µM (≈ 0.155 µg/mL) in assay [2] and 1.85 µM (≈ 0.622 µg/mL) in assay [3]. For the same compound, the Selectivity ratio in assay [4] is 2.
As to `COc1ccc2nc(C)cc(OCC(=O)Nc3cccc(Cl)c3)c2c1`, the MIC is 3.5 µM (≈ 1.25 µg/mL) in assay [1], 0.22 µM (≈ 0.0785 µg/mL) in assay [2] and 0.87 µM (≈ 0.31 µg/mL) in assay [3].
The like results for `COc1ccc2nc(C)cc(OCC(=O)Nc3ccccc3Cl)c2c1` were, in that order, 1.75 µM (≈ 0.624 µg/mL), 0.11 µM (≈ 0.0392 µg/mL) and 0.44 µM (≈ 0.157 µg/mL).
`COc1cccc(NC(=O)COc2cc(C)nc3ccc(OC)cc23)c1`: the minimal inhibitory concentration (MIC) came out at 7.08 µM (≈ 2.49 µg/mL) in assay [1], 0.44 µM (≈ 0.155 µg/mL) in assay [2] and 1.77 µM (≈ 0.624 µg/mL) in assay [3]. The Selectivity ratio in assay [4] came to 2.
